Laboratory results reported in US20260376293A1, “METHODS FOR STUDYING GPR158 PHARMACOLOGY AND IDENTIFICATION OF ITS LIGANDS” (UNIVERSITY OF FLORIDA RESEARCH FOUNDATION, INCORPORATED, priority 2022, published 2026).

Target: T1, GPR158 (Homo sapiens, UniProt Q5T848)
T1 construct: expressed in transfected cells; host or cells: HEK293T/17
T1 sequence (Q5T848 24-1215): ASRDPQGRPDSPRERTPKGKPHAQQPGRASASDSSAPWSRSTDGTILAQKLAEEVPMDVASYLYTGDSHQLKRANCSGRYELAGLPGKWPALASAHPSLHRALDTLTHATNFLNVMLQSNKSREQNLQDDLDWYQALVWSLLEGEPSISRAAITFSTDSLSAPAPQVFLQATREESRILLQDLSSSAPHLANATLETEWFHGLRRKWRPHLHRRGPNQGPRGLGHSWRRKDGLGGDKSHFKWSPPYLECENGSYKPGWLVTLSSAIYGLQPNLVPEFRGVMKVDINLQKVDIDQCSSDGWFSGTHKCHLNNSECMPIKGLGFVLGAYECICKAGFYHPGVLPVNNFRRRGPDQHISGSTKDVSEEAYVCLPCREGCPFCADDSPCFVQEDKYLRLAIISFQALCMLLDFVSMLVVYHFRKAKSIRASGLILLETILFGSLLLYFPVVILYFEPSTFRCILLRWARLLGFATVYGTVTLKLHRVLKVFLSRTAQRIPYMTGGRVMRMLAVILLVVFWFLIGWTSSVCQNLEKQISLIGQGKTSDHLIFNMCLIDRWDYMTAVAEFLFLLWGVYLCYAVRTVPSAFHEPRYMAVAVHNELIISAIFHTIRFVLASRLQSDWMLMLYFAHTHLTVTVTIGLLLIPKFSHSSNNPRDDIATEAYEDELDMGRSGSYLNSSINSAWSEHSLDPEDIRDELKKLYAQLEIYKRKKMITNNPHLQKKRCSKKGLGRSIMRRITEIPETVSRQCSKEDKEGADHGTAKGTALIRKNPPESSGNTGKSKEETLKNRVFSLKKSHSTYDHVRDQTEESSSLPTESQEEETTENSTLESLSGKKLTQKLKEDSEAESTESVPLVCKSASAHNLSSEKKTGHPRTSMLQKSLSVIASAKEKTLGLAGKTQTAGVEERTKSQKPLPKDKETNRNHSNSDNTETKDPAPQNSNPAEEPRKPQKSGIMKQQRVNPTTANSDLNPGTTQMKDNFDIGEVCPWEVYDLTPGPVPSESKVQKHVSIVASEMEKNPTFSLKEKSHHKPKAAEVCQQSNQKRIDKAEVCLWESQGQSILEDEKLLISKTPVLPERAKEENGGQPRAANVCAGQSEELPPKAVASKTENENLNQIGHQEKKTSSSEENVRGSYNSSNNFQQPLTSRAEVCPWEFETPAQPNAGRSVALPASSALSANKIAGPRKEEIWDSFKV
T1 sequence (P49802 1-495 partner): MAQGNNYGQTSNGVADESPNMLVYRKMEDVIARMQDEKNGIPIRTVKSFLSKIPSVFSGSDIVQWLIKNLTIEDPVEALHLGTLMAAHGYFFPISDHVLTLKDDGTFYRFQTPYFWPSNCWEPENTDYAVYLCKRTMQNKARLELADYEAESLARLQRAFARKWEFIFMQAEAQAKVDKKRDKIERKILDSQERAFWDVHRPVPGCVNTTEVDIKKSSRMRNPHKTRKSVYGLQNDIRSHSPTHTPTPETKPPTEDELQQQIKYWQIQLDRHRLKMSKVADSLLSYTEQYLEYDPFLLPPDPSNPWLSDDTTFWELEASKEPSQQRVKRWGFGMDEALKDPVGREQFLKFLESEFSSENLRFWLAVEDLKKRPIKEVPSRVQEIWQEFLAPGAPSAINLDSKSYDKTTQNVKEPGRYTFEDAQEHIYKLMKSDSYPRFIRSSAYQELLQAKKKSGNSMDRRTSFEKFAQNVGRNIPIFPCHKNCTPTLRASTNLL
T1 sequence (O14775 1-395 partner): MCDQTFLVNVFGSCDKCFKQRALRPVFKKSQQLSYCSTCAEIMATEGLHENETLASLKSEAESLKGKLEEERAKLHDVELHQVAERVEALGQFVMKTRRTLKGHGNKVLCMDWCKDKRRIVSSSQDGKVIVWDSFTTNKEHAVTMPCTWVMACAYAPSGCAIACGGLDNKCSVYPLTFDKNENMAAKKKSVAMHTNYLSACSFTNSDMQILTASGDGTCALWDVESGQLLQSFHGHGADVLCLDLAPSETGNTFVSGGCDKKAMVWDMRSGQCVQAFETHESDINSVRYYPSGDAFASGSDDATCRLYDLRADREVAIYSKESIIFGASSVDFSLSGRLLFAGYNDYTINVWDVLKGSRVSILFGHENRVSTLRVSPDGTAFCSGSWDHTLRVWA
Experiment: HTRF cAMP Gαi assay, HEK293T/17 cells
Format: cell-based
Details: forskolin; GPR158-RGS7/Gβ5, HEK293T/17
Experimental: FIGS. 18A-18C: A. Schematic representation of HTRF Gαi CAMP assay. B. cAMP standard curve to establish assay window and dynamic range. The data shown here indicate the HTRF ratio plotted as a function of various concentrations of cAMP standards (0.17 nM to 712 nM). The curve fitting was performed using Nonlinear regression analysis in Graphpad Prism software. C. Gly treatment of GPR158-RGS7/Gβ5 expressing HEK293T/17 cells leads to depletion of cAMP levels in a concentration dependent manner. Data shown here represent the HTRF ratio normalized with respect to the buffer treated cells (control) (Mean±SEM from 1 experiment performed in triplicates).
HEK293T/17 cells were transfected with GPR158, RGS7 and Gβ5 plasmids as mentioned above by Maxcyte electroporation. 24 hours post transfection, cells were harvested by centrifugation, counted, and seeded in a white 384 well plate at a density of 6000 cells per well after resuspending in the stimulation buffer provided with the kit. […] The HTRF signal was measured using the HTRF optic module (donor excitation: 337 nm, donor emission: 620 nm, acceptor emission 665 nm) and laser energy source in the Pherastar FSX microplate reader (BMG Labtech).
The data were plotted as the ratio of fluorescence emission intensities by acceptor and donor (Em 665 nm/Em 620 nm). […]

## NCC(=O)O [glycine]
  HTRF signal change (cAMP decrease): increase in HTRF signal in a Gly dose dependent fashion
